The subject of assay [1] is U-937. Kind of assay: Induction of ferroptosis in human U-937 cells assessed as increase in lipid peroxidation accumulation at 100 uM incubated for 48 hrs by C11-BODIPY 581/591 staining based flow cytometry analysis. Format: functional, cell-based.
Assay [2] deals with U-937. Kind of assay: Induction of ferroptosis in human U-937 cells assessed as increase in ferrous ion accumulation at 5 uM incubated for 48 hrs by RhoNox-1 staining based flow cytometry analysis. Format: functional, cell-based.
The subject of assay [3] is OCI-AML2. Kind of assay: Antiproliferative activity against human OCI-AML2 cells assessed as cell growth inhibition incubated for 2 days by CCK-8 assay. As to conditions: OCI-AML2, 48 h.
Assay [4] relates to U-937. Kind of assay: Induction of ferroptosis in human U-937 cells assessed as increase in ferrous ion accumulation at 100 uM incubated for 48 hrs by RhoNox-1 staining based flow cytometry analysis. Format: functional, cell-based. On the technique in general: Flow cytometry measures light scatter and fluorescence of single cells or particles in a stream.
The target in assay [5] is T1, Histone deacetylase 11 (Homo sapiens) (UniProt Q96DB2).
T1 sequence (whole entry): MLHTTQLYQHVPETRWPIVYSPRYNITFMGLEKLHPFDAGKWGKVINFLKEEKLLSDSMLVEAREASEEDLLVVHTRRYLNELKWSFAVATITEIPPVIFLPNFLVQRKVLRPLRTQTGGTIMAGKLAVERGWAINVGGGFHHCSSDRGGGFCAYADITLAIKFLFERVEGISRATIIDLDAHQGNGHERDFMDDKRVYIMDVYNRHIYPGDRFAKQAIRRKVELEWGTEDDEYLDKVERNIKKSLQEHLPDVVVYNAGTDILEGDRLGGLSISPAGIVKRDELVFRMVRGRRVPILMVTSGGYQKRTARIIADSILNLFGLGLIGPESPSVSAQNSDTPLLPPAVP
Kind of assay: Inhibition of HDAC11 in human U-937 cells assessed as increase in SHMT2 fatty acylation level in presence of Alk14 at 100 uM incubated for 6 hrs by Western blot analysis. Format: cell-based. (Immunoblotting shows a protein as a band on a membrane.)

For another assay, the target named is Histone deacetylase 4 (Homo sapiens, UniProt P56524). Kind of assay: Inhibition of N-terminal GST-tagged C-terminal His-tagged human HDAC4 (627 to 1084 end residues) expressed in baculovirus expression system in Sf9 cells using Boc-Lys-(trifluoroacetyl)-AMC as substrate preincubated with enzyme for 1 hr followed by substrate addition and measured after 30 mins by fluorescence analysis.

Assay [6] concerns OCI-AML2. Kind of assay: Induction of ferroptosis in human OCI-AML2 cells assessed as increase in ferrous ion accumulation at 100 uM incubated for 48 hrs by RhoNox-1 staining based flow cytometry analysis. Format: functional, cell-based.
The next assay has as its system THP-1. Kind of assay: Induction of cell apoptosis in human THP-1 cells at 100 uM incubated for 48 hrs by Annexin V/DAPI staining based flow cytometry analysis. Format: functional.
In assay [7] the test system is OCI-AML2. Kind of assay: Induction of ferroptosis in human OCI-AML2 cells assessed as increase in ferrous ion accumulation at 5 uM incubated for 48 hrs by RhoNox-1 staining based flow cytometry analysis. Format: functional, cell-based.
The target in a further assay is T2, Histone deacetylase 8 (Homo sapiens, UniProt Q9BY41).
T2 sequence (Q9BY41 whole entry): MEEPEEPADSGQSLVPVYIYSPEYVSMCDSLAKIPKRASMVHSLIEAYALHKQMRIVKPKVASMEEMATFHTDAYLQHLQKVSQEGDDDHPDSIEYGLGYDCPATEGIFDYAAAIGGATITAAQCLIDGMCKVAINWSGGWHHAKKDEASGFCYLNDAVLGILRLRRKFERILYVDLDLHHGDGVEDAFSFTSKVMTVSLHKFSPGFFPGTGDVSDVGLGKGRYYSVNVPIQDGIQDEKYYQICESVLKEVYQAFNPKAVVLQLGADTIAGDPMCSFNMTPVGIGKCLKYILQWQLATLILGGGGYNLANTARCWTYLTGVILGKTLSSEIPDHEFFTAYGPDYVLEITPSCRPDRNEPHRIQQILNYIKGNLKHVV
Kind of assay: Inhibition of C-terminal His-tagged full length human recombinant HDAC8 (1 to 377 end residues) expressed in Sf9 cells using Boc-Lys-(trifluoroacetyl)-AMC as substrate preincubated with enzyme for 1 hr followed by substrate addition and measured after 30 mins by fluorescence analysis.

For assay [8], the target named is T3, Protein deacetylase HDAC6 (Homo sapiens, UniProt Q9UBN7).
T3 sequence (Q9UBN7 whole entry): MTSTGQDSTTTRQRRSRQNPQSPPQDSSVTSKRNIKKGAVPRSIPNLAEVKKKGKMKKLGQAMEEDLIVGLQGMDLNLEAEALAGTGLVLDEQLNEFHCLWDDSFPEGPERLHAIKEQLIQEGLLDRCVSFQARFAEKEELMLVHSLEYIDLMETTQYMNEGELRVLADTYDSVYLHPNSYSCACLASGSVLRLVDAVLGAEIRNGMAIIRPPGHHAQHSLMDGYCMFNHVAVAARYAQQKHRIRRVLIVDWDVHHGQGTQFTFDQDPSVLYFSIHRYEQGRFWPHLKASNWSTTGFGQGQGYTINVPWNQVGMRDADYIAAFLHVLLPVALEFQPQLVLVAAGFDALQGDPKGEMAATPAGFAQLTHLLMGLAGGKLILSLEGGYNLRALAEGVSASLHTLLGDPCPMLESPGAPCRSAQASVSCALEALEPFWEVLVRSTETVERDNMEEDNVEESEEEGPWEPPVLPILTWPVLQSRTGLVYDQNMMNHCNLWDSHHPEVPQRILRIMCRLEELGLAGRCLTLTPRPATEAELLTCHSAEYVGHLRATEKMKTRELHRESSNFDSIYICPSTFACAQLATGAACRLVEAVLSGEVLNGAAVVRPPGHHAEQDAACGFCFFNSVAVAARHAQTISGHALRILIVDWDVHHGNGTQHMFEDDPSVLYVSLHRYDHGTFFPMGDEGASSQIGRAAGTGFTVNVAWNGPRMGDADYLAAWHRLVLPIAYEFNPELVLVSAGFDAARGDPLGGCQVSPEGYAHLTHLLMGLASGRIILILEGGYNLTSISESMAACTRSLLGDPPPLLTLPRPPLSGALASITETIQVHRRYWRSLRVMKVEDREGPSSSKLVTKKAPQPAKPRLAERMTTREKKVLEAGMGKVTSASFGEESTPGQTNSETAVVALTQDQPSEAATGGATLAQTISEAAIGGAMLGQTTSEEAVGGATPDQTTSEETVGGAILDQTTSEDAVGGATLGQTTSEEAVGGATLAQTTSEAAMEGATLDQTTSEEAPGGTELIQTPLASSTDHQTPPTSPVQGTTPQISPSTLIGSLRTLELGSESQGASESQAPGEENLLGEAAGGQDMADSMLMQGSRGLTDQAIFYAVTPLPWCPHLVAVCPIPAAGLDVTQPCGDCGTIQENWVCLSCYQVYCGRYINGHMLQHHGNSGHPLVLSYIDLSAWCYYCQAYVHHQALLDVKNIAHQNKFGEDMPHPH
Kind of assay: Inhibition of N-terminal GST-tagged full length human recombinant HDAC6 (1 to 1215 end residues) expressed in Sf9 cells using Boc-Lys-(acetyl)-AMC as substrate preincubated with enzyme for 1 hr followed by substrate addition and measured after 30 mins by fluorescence analysis.

The subject of assay [9] is U-937. Kind of assay: Antitumor activity against human U-937 cells assessed as cell growth inhibition incubated for 2 days by CCK-8 assay. As to conditions: U-937, 48 h.
The target in another assay is T4, Histone deacetylase 11 (Homo sapiens, UniProt Q96DB2).
T4 sequence (Q96DB2 whole entry): T1 sequence (whole entry)
Kind of assay: Inhibition of full length human recombinant HDAC11 (1 to 347 end residues) expressed in Sf9 cells using AcetylETDKmyr-AMC as substrate preincubated with enzyme for 1 hr followed by substrate addition and measured after 30 mins by fluorescence analysis.

The next assay has as its system OCI-AML-3. Kind of assay: Induction of cell apoptosis in human OCI-AML-3 cells at 100 uM incubated for 48 hrs by Annexin V/DAPI staining based flow cytometry analysis. Format: functional.
A further assay deals with Histone deacetylase 1 (Homo sapiens, UniProt Q13547). Kind of assay: Inhibition of C-terminal 6xHis/FLAG-tagged full length human recombinant HDAC1 (1 to 482 end residues) expressed in Sf9 cells using Boc-Lys-(acetyl)-AMC as substrate preincubated with enzyme for 1 hr followed by substrate addition and measured after 30 mins by fluorescence analysis.
Assay [10] can be described thus: Antitumor activity against mouse MLL-AF9 cells allografted in female C57BL/6 mouse model assessed as GFP positive leukemic cells in peripheral blood at 50 mg/kg, ip administered once daily for 26 days by FITC staining based analysis (reference value: 30.6 %). Format: functional. As to conditions: time 26 day.
A short description of assay [11]: Antitumor activity against mouse MLL-AF9 cells allografted in female C57BL/6 mouse model assessed as GFP positive leukemic cells in peripheral blood at 50 mg/kg, ip administered once daily for 32 days by FITC staining based analysis (reference value: 72.5 %). Format: functional. As to conditions: time 32 day.

pIC50: −log10 of the molar value. The source made the active and inactive calls. No cut-off for these calls is given here.

Chain of Histone deacetylase 4 (P56524 whole entry): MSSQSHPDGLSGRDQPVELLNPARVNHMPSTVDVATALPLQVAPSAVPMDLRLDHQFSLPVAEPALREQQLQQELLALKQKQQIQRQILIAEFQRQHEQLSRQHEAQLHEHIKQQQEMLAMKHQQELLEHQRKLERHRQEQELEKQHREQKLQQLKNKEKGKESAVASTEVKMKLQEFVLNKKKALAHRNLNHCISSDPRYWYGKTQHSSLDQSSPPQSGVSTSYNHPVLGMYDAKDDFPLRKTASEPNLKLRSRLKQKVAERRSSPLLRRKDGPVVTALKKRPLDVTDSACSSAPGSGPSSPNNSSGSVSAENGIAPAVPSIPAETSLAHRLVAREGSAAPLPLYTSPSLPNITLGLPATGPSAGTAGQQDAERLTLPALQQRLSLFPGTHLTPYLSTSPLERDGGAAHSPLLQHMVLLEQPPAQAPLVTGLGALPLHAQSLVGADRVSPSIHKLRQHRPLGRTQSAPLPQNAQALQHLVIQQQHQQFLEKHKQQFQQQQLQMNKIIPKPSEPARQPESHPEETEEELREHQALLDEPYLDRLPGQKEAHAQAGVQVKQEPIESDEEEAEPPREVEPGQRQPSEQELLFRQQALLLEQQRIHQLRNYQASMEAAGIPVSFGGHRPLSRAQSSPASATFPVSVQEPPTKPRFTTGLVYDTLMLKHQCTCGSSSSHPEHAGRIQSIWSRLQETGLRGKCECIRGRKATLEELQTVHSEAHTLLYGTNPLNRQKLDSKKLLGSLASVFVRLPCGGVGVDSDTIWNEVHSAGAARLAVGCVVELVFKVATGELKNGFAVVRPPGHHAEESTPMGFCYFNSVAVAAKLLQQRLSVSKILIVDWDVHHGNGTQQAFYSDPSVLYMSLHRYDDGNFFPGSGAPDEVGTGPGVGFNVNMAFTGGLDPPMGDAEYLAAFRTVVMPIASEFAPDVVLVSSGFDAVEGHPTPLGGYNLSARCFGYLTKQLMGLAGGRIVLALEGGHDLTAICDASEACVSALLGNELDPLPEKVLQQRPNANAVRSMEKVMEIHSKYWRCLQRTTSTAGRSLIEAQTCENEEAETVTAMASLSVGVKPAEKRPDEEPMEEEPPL
Chain of Histone deacetylase 1 (Q13547 whole entry): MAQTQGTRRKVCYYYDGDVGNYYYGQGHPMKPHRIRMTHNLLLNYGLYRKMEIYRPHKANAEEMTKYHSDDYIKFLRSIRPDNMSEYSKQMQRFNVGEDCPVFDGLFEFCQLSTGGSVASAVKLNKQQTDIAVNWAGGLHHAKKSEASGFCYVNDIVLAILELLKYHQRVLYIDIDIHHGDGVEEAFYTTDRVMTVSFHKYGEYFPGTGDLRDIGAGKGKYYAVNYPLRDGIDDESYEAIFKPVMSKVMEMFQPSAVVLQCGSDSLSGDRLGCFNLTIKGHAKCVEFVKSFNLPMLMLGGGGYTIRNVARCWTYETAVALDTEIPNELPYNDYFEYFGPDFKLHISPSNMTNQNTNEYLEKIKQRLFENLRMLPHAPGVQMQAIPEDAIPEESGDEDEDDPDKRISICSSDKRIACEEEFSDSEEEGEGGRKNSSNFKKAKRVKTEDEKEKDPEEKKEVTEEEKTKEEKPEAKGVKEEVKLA

For the compound `CCCCCCCCCCCCCCCCNNC(=O)c1cccs1`, the result in the assay with U-937 [1], with U-937 [2], with U-937 [4], with OCI-AML2 [6], in the assay with THP-1 and in the assay with OCI-AML2 [7] was Active. In addition, the outcome with OCI-AML-3 was Active. Also, the pIC50 – broadly, the IC50 on a negative log10 scale, so that one unit is a factor of ten – with OCI-AML2 [3] was approximately 3.82; against Histone deacetylase 4, less than 4.00; on Histone deacetylase 8, less than 4.00; in assay [8] it was 4.11; in the assay on U-937 [9] it was approximately 3.82; on Histone deacetylase 11 it was 6.43. Further, on Histone deacetylase 1, the pIC50 was 4.03. The inhibition entry in assay [5] is “Active”.

For `Nc1ccn([C@@H]2O[C@H](CO)[C@@H](O)[C@@H]2O)c(=O)n1` [CYTARABINE], the Activity in [10] came to 5.81%; in assay [11], 13.2%.

Compound `O=C(NO)c1cccc2[nH]c(C#Cc3ccccc3)cc12` gave a pIC50 on Histone deacetylase 4 of less than 4.00.

Values taken from ChEMBL document CHEMBL6134843, “HDAC11 Inhibition as a Potential Therapeutic Strategy for AML: Target Identification, Lead Discovery, Antitumor Potency, and Mechanism Investigation” (J Med Chem, 2025).
